Results as given in PMC10583239 (CPT: Pharmacometrics & Systems Pharmacology, 2023).

Assay: Clinical DDI cohort: midazolam with pomotrelvir 1050 mg b.i.d.
[1] = 1 mg midazolam alone, Day 1, N = 8
[2] = midazolam + pomotrelvir 1050 mg twice daily, Day 6
[3] = midazolam + pomotrelvir 1050 mg twice daily, Day 11

| Compound | AUCinf geometric mean [1] [ng·h/mL] | AUClast geometric mean [1] [ng·h/mL] | Cmax geometric mean [1] [ng/mL] | AUCinf geometric mean ratio (MDZ + POMO)/(MDZ) (Day 6 vs Day 1) | AUClast geometric mean ratio (MDZ + POMO)/(MDZ) (Day 6 vs Day 1) | Cmax geometric mean ratio (MDZ + POMO)/(MDZ) (Day 6 vs Day 1) | AUCinf geometric mean ratio (MDZ + POMO)/(MDZ) (Day 11 vs Day 1) | AUClast geometric mean ratio (MDZ + POMO)/(MDZ) (Day 11 vs Day 1) | Cmax geometric mean ratio (MDZ + POMO)/(MDZ) (Day 11 vs Day 1) | AUCinf geometric mean [2] [ng·h/mL] | AUClast geometric mean [2] [ng·h/mL] | Cmax geometric mean [2] [ng/mL] | AUCinf geometric mean [3] [ng·h/mL] | AUClast geometric mean [3] [ng·h/mL] | Cmax geometric mean [3] [ng/mL] | Cmax (both, human, plasma, oral, 1 mg) [ng/mL] |
| --- | --- | --- | --- | --- | --- | --- | --- | --- | --- | --- | --- | --- | --- | --- | --- | --- |
| OCc1ncc2n1-c1ccc(Cl)cc1C(c1ccccc1F)=NC2 [1‐OH‐midazolam, 1‐hydroxy‐midazolam] | 4.76 | 4.72 | 1.36 | 0.65 | 0.62 | 0.53 | 0.56 | 0.56 | 0.58 | 3.09 | 2.87 | 0.73 | 2.66 | 2.64 | 0.8 |  |
| Cc1ncc2n1-c1ccc(Cl)cc1C(c1ccccc1F)=NC2 [Midazolam, midazolam, reference compound] |  |  |  | 1.48 | 1.51 | 1.09 | 1.33 | 1.36 | 1.09 |  |  | 4.44 |  |  | 4.44 | 4.06 |
